Source: article PMC8327781 (Journal of medicinal chemistry, 2021)
Where two headings read alike, the source gives them in different places.

Target: JAK2 KD (Homo sapiens, UniProt O60674)
Assay: Recombinant JAK2 KD protein levels in transfected Expi293F cells
Format: cell-based

Sequence of JAK2 KD (O60674 840-1132): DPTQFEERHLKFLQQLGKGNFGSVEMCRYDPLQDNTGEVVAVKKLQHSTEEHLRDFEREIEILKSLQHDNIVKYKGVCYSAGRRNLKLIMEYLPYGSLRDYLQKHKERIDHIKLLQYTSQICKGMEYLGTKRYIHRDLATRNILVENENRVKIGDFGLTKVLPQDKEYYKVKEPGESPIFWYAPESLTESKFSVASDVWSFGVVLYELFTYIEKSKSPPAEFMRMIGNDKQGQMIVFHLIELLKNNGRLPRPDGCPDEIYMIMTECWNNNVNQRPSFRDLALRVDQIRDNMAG

| JAK2 KD expression increase over that of ruxolitinib alone | JAK2 KD expression increase over that of ruxolitinib alone (HDAC inhibitor added alongside 1 μM ruxolitinib, 2 mM and 4 mM) | SMILES |
| --- | --- | --- |
| four-fold |  | CCCC(=O)O [butyric acid] |
|  | four-fold | CCCC(CCC)C(=O)O [valproic acid] |
